Read-outs that look alike come from different tables or passages of the source. Marks after values point to notes of the source that are not given here.

The subject of data set [1] is formalin response (licking/biting of the injected paw). In words: Mouse formalin test (second phase). It is filed as in vivo. To be noted: for ED50: Mus musculus, read-out: Formalin ED50. The method, then: Injection of diluted formalin into the hind paw of rats or mice is known to elicit a biphasic pain-related behaviour measured as time spent by licking/biting of the injured paw. The second phase is generally defined as pain related events detected in the 15-60 min. time interval ater formalin injection, with peak activity at around 30 min. It is known that NMDA receptors are involved in the second phase of response to formalin injection and this behavioural response is sensitive to blockade of NMDA receptors [Dickenson, A. and Besson J.-M. (Editors): Chapter 1, pp. 6-7: Animal models of Analgesia; and Chapter 8, pp. 180-183: Mechanism of Central Hypersensitivity: Excitatory Amino Acid Mechanisms and Their Control—In Pharmacology of Pain. Springer-Verlag (Berlin) 1997.] Therefore, we used the second phase of formalin test to characterize the efficacy of compounds in vivo. Inhibition of the second phase of response is considered to indicate an analgesic effect against chemically-induced persistent pain [Hunskaar, S., et al.: Formalin Test in Mice, a Useful Technique for Evaluating Mild Analgesics, Journal of Neuroscience Methods, 14 (1985) 69-76.]
Male albino Charles River NMRI mice (20-25 g) were used. Prior to the experiment any solid food was withdrawn for approx. 16 hours but the animals had free access to 20% glucose solution. The animals were allowed 1 hour acclimatization period in a glass cylinder (cc. 15 cm in diameter), then moved to an identical cylinder with a mirror placed behind to facilitate observation. The test substances were suspended in 5% tween-80 (10 ml per kg body weight) and administered orally by gavage 15 min before the formalin injection (20 μl of 1% formalin in 0.9% saline injected subcutaneously into the dorsal surface of the right hindpaw). The time spent by licking and biting of the injected paw was measured from 20 to 25 min. after the formalin injection.

Data set [2] has as its target T1, recombinant NMDA receptors NR1/NR2A (Homo sapiens, UniProt Q05586+Q12879).
T1 construct: expressed in transfected cells
Put plainly: Inhibition of NMDA evoked cytosolic calcium elevations in transfected HEK293 cells. It is filed as cell-based. Conditions: for inhibition at 10 µM / inhibition at 15 µM: HEK293; for inhibition at 10 µM: read-out: NR1-3/NR2A % inhibition at 10 μM. As to the method: (1997); Neurochemistry International, 43, 19-29. (2003)]. […] Compounds were tested for their inhibitory action on NMDA evoked cytosolic calcium elevations in fluorescent calcium measurements. Studies were performed 48-72 h after addition of the inducing agent. Ketamine ([…] was also present during the induction in order to prevent cytotoxicity.
(§1) Dose-response curves and IC50-values were calculated using data derived from at least three independent experiments. Inhibitory potency of a compound at a single concentration point was expressed as percent inhibition of the NMDA response. Sigmoidal concentration-inhibition curves were fit to the data and IC50 values were determined as the concentration that produces half of the maximal inhibition caused by the compound.

Data set [3] deals with T2, NR2B containing NMDA receptors (Rattus norvegicus, UniProt P35439+Q00960).
T2 construct: primary neocortical cell cultures derived from 17 day old Charles River rat embryos; endogenous in cells; host or cells: primary rat embryonic (E17) neocortical cell culture, 3-7 days in vitro
T2 sequence (Q00960 27-1482, other chains not shown): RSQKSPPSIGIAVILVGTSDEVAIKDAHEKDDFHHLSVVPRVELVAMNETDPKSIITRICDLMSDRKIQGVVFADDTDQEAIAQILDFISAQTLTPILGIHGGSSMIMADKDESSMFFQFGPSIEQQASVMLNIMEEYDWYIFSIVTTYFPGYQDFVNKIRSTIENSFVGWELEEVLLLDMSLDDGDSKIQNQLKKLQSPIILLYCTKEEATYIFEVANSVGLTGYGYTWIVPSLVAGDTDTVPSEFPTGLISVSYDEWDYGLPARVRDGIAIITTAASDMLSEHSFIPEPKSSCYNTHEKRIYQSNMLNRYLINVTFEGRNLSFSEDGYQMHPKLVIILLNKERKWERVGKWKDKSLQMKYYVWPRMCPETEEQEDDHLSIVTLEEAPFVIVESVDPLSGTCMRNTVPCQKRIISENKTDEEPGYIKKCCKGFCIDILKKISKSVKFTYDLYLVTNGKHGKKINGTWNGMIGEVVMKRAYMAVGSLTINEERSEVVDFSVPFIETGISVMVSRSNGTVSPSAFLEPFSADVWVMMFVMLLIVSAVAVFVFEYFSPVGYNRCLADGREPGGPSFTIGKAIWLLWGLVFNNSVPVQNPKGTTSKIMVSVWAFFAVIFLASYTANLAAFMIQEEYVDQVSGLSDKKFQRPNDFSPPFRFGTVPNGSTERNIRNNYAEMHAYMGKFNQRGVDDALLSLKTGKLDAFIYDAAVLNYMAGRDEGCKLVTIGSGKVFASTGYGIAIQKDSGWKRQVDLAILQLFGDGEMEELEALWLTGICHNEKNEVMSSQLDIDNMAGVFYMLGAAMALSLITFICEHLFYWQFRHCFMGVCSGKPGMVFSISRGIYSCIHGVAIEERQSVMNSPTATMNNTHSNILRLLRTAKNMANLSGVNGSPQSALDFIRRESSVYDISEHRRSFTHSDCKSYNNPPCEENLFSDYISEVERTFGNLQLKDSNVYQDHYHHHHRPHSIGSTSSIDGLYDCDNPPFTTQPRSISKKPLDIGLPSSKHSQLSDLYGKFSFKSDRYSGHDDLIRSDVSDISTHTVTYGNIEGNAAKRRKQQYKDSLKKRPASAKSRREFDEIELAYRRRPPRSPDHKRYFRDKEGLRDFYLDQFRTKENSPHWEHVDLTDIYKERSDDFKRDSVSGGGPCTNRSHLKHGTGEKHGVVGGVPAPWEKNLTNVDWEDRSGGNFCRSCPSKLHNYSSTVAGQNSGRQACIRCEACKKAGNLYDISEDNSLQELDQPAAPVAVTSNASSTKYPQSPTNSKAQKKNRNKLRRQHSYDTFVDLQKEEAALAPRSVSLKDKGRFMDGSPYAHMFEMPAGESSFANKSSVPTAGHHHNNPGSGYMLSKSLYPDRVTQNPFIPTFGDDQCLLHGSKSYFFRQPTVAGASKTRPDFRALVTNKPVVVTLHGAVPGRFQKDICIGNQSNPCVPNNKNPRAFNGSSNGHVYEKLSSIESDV
Put plainly: NMDA antagonist potency by fluorimetric intracellular calcium measurement in rat cortical cell culture. Conditions: fluorimetric method, 40 μM NMDA. It is filed as cell-based. As to the method:
Assessment of NMDA Antagonist Potency In Vitro by Measurement of Intracellular Calcium Concentration with a Plate Reader Fluorimeter in Rat Cortical Cell Culture
The intracellular calcium measurements were carried out on primary neocortical cell cultures derived from 17 day old Charles River rat embryos (for the details on the preparation of neocortical cell culture see Johnson, M. I.; Bunge, R. P. (1992): Primary-cell cultures of peripheral and central neurons and glia. In: Protocols for Neural Cell Culture, eds: Fedoroff, S.; Richardson A., The Humana Press Inc., 51-75. After isolation the cells were plated onto standard 96-well microplates and the cultures were maintained in an atmosphere of 95% air-5% CO2 at 37° C. until the calcium measurements.
The cultures were used for the intracellular calcium measurements after 3-7 days in vitro. The cells at this in vitro age are believed to express predominantly NR2B containing NMDA receptors [Mol. Pharmacol. 45, 846-853. (1994)]. Before the measurement the cells were loaded with a fluorescent Ca^2+-sensitive dye, Fluo-4/AM (2 μM). To stop the loading the cells were washed twice with the solution used for the measurement (140 mm NaCl, 5 mM KCl, 2 mM CaCl2, 5 mM HEPES, 5 mM HEPES-Na, 20 mM glucose, 10 mM glycine, pH=7.4). After washing the test compounds were added to the cells in the above solution (90 μl/well). Intracellular calcium measurements were carried out with a plate reader fluorimeter: elevation of Fluo-4-fluorescence and so, intracellular calcium concentration was induced by application of 40 μM NMDA. Inhibitory potency of the test compounds was assessed by measuring the reduction in the calcium elevation in the presence of different concentrations of the compounds.
as §1
A general note: Calcium flux is commonly read through the fluorescence of an indicator in the cells.

The subject of the next data set is locomotor activity. To be noted: cited from earlier work; for effect on locomotor activity (in words): animal behavioural studies.
In data set [4] the test system is spontaneous locomotor activity. Put plainly: Spontaneous locomotor activity (LMA) in mice. It is filed as in vivo, mouse. To be noted: for locomotor stimulation relative to analgesic dose range (in words): mouse, in vivo. The method, then: Male NMRI mice weighing 20-22 g were used in the experiments.
Spontaneous locomotor activity was measured in a four-channel activity monitor. The apparatus consisted of acrylic cages. (43 cm×43 cm×32 cm) equipped with 2×16 pairs of photocells along all the bottom axis of the cage. An additional array of photocells (16 pairs) was placed along two opposite sides of the cage at the height of 10 cm in order to detect rearing responses.
Experimental groups consisted of 10 animals. Thirty minutes after the oral administration of the test compound or vehicle (tween-80), the animals were individually placed in one of four cages for one hour. Horizontal and vertical movements were determined as the number of beam interruptions for one hour at 15 min intervals.
Mean ±SE of horizontal activity data of each group was calculated then percentual changes compared to the control (vehicle-treated) group were determined. A compound was considered to cause locomotor stimulation when its effect exceeded 50% increase in beam interruptions. Consequently, doses defined as free of stimulatory action (UM) produced less than 50% increase.

Setting [5] is: oral, 15 min before formalin, licking time 20 to 25 min.
[6] abbreviates: read-out: rat cortical cells IC50.
The mark [7] stands for this setting: read-out: Rat cortical cells (NR2B) appr. IC50.

T1 sequence (Q12879 23-1464, other chains not shown): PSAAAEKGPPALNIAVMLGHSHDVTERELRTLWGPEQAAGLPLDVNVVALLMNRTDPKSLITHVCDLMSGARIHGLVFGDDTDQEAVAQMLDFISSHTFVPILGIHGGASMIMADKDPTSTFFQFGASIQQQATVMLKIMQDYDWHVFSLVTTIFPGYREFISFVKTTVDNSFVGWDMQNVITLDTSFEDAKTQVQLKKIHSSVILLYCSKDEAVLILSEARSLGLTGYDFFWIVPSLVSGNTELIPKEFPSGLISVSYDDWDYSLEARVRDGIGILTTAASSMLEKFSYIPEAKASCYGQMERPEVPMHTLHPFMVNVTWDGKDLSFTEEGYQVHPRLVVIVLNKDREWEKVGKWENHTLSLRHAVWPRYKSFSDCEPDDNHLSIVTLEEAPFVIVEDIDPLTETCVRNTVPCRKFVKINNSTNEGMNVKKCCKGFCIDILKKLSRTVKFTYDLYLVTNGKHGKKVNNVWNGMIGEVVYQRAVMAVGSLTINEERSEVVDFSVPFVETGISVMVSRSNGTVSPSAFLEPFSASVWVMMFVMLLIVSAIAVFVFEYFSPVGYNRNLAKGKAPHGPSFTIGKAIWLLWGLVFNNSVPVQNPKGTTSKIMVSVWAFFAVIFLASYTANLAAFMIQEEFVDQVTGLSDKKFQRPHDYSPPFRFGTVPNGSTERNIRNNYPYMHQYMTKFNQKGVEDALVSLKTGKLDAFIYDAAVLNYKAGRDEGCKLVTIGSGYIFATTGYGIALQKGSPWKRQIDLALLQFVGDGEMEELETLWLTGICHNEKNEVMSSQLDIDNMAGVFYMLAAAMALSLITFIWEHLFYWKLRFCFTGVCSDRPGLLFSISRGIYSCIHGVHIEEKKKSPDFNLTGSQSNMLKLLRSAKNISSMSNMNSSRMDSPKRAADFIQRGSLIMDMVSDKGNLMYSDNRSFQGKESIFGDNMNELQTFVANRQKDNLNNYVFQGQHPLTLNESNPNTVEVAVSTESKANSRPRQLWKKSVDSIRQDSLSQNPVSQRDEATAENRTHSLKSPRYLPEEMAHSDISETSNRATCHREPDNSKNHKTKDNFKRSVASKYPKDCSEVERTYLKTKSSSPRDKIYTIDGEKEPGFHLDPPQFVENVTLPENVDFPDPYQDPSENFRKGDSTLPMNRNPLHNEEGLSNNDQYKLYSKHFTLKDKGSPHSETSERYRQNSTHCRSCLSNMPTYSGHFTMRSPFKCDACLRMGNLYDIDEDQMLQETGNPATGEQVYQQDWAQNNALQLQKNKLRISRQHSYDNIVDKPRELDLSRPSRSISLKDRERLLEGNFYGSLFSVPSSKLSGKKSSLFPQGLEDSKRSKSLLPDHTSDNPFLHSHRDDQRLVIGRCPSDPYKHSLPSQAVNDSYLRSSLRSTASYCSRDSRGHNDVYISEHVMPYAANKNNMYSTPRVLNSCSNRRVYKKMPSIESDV

Regarding `C[C@@H](CN1CCC(Cc2ccccc2)CC1)[C@@H](O)c1ccc(O)cc1` (relative stereo) [Ro 25-6981, R-(R*,S*)-1-(4-hydroxyphenyl)-2-methyl-3-[4-(phenylmethyl)piperidin-1-yl]-1-propanol], the “Formalin ED50” value in data set [1] (setting [5]) is on record as >20* mg/kg. For the same compound, the “NR1-3/NR2A % inhibition at 10 μM” value in data set [2] was 1.0%. Moreover, in data set [3] (setting [6]), the IC50 – broadly, the concentration that inhibits the measured activity by half – is 159 nM. Further, the “effect on locomotor activity (in words)” value with locomotor activity is “increase locomotor activity”; in the data set with locomotor activity (listed as Ro 256981) it was “no such effect was observed”.
For the compound `O=c1[nH]c2ccc([S+]([O-])CCN3CCC(Cc4ccc(F)cc4)CC3)cc2o1` (stereo not drawn) [CI-1041, 6-{2-[4-(4-fluoro-benzyl)-piperidin-1-yl]-ethanesulfinyl}-3H benzooazol-2-one], the ED50 (in general, the midpoint of the dose-response relation) in data set [1] (setting [5]) is 2.4 mg/kg. Moreover, the inhibition at 10 µM in data set [2] came to 21%. This compound gave an LMA % increase in data set [4] (dose 10 mg/kg oral) of 137%. Further, the “locomotor stimulation relative to analgesic dose range (in words)” value in data set [4] is “no separation between the doses causing analgesia and those stimulating locomotor activity”.
On to `C[C@@H]([C@@H](O)c1ccc(O)cc1)N1CCC(O)(c2ccccc2)CC1` [CP-101,606], for which the “Formalin ED50” value in data set [1] (setting [5]) is recorded as >20* mg/kg. For the same compound, in data set [2], the “NR1-3/NR2A % inhibition at 10 μM” value is given as 2.5%. Also, the “effect on locomotor activity (in words)” value with locomotor activity is “no such effect was observed”. In addition, the “dose up to which locomotor stimulating effect is lacking” value with locomotor activity (i.p.) is recorded as at most 100 mg/kg; in the data set on locomotor activity (s.c.), “up to 56 mg/kg”.
Regarding `Cc1ccc(CC2(O)CCN(CCOc3ccc(O)cc3)CC2)cc1` [Co-101244, 1-[2-(4-hydroxyphenoxy)ethyl]-4-hydroxy-4-(4-methylbenzyl)piperidine], the inhibition at 10 µM in data set [2] is -8.7%.
`O=C(CCN1CCC(Cc2ccc(F)cc2)CC1)c1ccc2[nH]c(=O)oc2c1` [EMD 95885]: in data set [2], the “NR1-3/NR2A % inhibition at 10 μM” value is 0.1%. The IC50 in data set [3] (setting [6]) worked out at 35 nM.
As to `O=C(c1nc2ccc(O)cc2[nH]1)N1CCC(=Cc2ccccc2)CC1` [Example 1, (4-Benzylidene-piperidine-1-yl)-(6-hydroxy-1H-benzoimidazol-2-yl)-methanone], the ED50 in data set [1] (setting [5]) was 2.6 mg/kg. The inhibition at 15 µM in data set [2] worked out at 33%. Also, in data set [3] (setting [7]), the IC50 was under 50 nM. Moreover, the LMA % increase came out at 27% in data set [4] (dose 15 mg/kg oral) and 63% in data set [4] (dose 30 mg/kg oral).
As to `Cc1ccc(C=C2CCN(C(=O)c3nc4ccc(O)cc4[nH]3)CC2)cc1` [Example 2, (6-Hydroxy-1H-benzoimidazol-2-yl)-[4-(4-methyl-benzylidene)-piperidine-1-yl]-methanone], the inhibition at 15 µM in data set [2] worked out at 34%. For the same compound, the IC50 in data set [3] (setting [7]) was under 50 nM.
The matching figures for `O=C(c1nc2ccc(O)cc2[nH]1)N1CCC(=Cc2ccc(F)cc2)CC1` [Example 3, [4-(4-Fluoro-benzylidene)-piperidine-1-yl]-(6-hydroxy-1H-benzoimidazol-2-yl)-methanone]: under 30% and under 50 nM.
The matching figures for `O=C(c1nc2ccc(O)cc2[nH]1)N1CCC(=Cc2ccc(Cl)cc2)CC1` [Example 4, [4-(4-Chloro-benzylidene)-piperidine-1-yl]-(6-hydroxy-1H-benzoimidazol-2-yl)-methanone]: under 30% and under 50 nM.
Consider `COc1ccc(C=C2CCN(C(=O)c3nc4ccc(O)cc4[nH]3)CC2)cc1` [Example 5, (6-Hydroxy-1H-benzoimidazol-2-yl)-[4-(4-methoxy-benzylidene)-piperidine-1-yl]-methanone], for which the inhibition at 15 µM in data set [2] was 52%. Also, the IC50 in data set [3] (setting [7]) is under 50 nM.
With `O=C(c1cc2ccc(O)cc2[nH]1)N1CCC(=Cc2ccccc2)CC1` [Example 6, (4-Benzylidene-piperidine-1-yl)-(6-hydroxy-1H-indol-2-yl)-methanone], in data set [1] (setting [5]), the ED50 was found to be 0.43 mg/kg. In addition, the inhibition at 15 µM in data set [2] was under 30%. In data set [3] (setting [7]), the IC50 lay in the range of 50 to 500 nM. Besides, the values for the LMA % increase in data set [4] (dose 3.75 mg/kg oral), in data set [4] (dose 7.5 mg/kg oral) and in data set [4] (dose 15 mg/kg oral) were 0%, 55% and 69%, respectively.
Take `C[C@]12N[C@H](Cc3ccccc31)c1ccccc12` [MK-801, (+)-5-Methyl-10,11-dihydro-5H-dibenzo[a,d]cyclohepten-5,10-imine]: the ED50 in data set [1] (po) was 0.15 mg/kg. Moreover, the LMA % increase in data set [4] (dose 0.1 mg/kg oral) is listed as 114%; in data set [4] (dose 0.3 mg/kg oral), 217%.
`O=C(c1cc2ccc(O)cc2[nH]1)N1CCC(Cc2ccccc2)CC1` [“B”, (4-benzyl-piperidin-1-yl)-(6-hydroxy-1H-indol-2-yl)-methanone]: in data set [1] (setting [5]), the 50% effective dose (ED50) came to 1.7 mg/kg. In data set [4] (dose 1.875 mg/kg oral), this compound had an LMA % increase of 90%. For the same compound, in data set [4], the “locomotor stimulation relative to analgesic dose range (in words)” value was “no separation between the doses causing analgesia and those stimulating locomotor activity”.
Turning to “(benzyl-piperidin-1-yl)-(6-hydroxy-1H-benzoimidazol-2-yl)-methanone [“A”]”, in data set [1] (setting [5]), the “Formalin ED50” value worked out at 1.6 mg/kg. In addition, the LMA % increase in data set [4] (dose 1.875 mg/kg oral) amounted to 80%. Moreover, the “locomotor stimulation relative to analgesic dose range (in words)” value in data set [4] was “no separation between the doses causing analgesia and those stimulating locomotor activity”.

(Values after patent US20080300276A1, “Heterocyclic Carboxylic Acide Amide Derivatives” (priority 2004, published 2008).)
